The target of data set [1] is bovine cytosolic carbonic anhydrase II (bCA II) (Bos taurus, UniProt P00921). As to the kind of experiment: In vitro carbonic anhydrase inhibition assay (p-nitrophenyl acetate hydrolysis). Type of data set: biochemical. The following applies: for IC50: mean of three independent experiments ± SEM; for inhibition at 500 µM: at 0.5 mM concentration of tested compounds, mean ± SEM. As to the method:
Carbonic anhydrase inhibition was measured by the reported method after standardization of reaction conditions such as concentration of enzyme and substrate, buffer pH, and duration of reaction. The method is based on spectrophotometric determination p-nitrophenol, the CA catalyzed hydrolysis product of p-nitrophenyl acetate. The reaction mixture consisted of 60 μL of 50 mM Tris-sulfate buffer (pH 7.6, containing 0.1 mM ZnCl2), 10 μL (0.5 mM) test compound in 1% DMSO, and 10 μL (50 U) bovine enzyme per well. […] Substrate, p-nitrophenyl acetate (6 mM stock using <5% acetonitrile in buffer), 20 μL was freshly prepared and added per well to achieve […] concentration per well. Total reaction volume was made to 100 μL.
The CA active site residues involved in direct zinc binding are His94, His96, and His119. In addition the substrate (CO2) association pocket, Thr199 loop, and the histidine proton shuttle mechanism (for regeneration of active site Zn bound hydroxide ion) are essential for CA catalytic activity and are highly conserved in all alpha class CAs. For this reason initial screening against bCA-II was carried out.

What is called melting point is the temperature of the solid-liquid transition. Broadly, the IC50 is the concentration that inhibits the measured activity by half. Low values mean greater potency, high ones weaker potency. Broadly, the inhibition is the relative decrease from the control value, in per cent. High values mean strong suppression, low ones little suppression.

bovine cytosolic carbonic anhydrase II (bCA II), sequence (P00921 whole entry): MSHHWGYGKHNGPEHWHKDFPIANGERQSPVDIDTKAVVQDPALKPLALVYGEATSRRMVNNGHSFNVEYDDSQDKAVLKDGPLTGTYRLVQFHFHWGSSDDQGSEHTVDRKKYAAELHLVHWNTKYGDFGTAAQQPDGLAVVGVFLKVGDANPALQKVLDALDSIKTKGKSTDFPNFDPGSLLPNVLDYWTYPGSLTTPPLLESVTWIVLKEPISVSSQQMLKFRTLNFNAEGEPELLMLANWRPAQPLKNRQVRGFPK

Take `Cc1ccnc(NS(=O)(=O)c2ccc(Nc3nc(Cl)nc(Cl)n3)cc2)n1` [1a, 4-[(4,6-Dichloro-1,3,5-triazin-2-yl)amino]-N-(4-methylpyrimidin-2-yl)benzenesulfonamide]: the melting point was in the range of 235 to 237 °C. Further, in data set [1], the IC50 stood at 4.14 ± 0.02 µM. Taken in the same sequence, the figures for `O=S(=O)(Nc1cnc2ccccc2n1)c1ccc(Nc2nc(Cl)nc(Cl)n2)cc1` [2a, 4-[(4,6-Dichloro-1,3,5-triazin-2-yl)amino]-N-(quinoxalin-2-yl)benzenesulfonamide] were 268 to 270 °C and 105.3 ± 0.16 µM. Regarding `Nc1ccc(S(=O)(=O)Nc2cnc3ccccc3n2)cc1` [2b, sulfaquinoxaline, reference compound], in data set [1], at 500 µM the inhibition was 51.8%.

Take `O=S(=O)(Nc1ncccn1)c1ccc(Nc2nc(Cl)nc(Cl)n2)cc1` [3a, 4-[(4,6-Dichloro-1,3,5-triazin-2-yl)amino]-N-(pyrimidin-2-yl)benzenesulfonamide]: the melting point lay within 221 to 223 °C. In data set [1], this compound displayed an IC50 of 24.9 ± 0.03 µM.

Consider `Cc1cc(C)nc(NS(=O)(=O)c2ccc(Nc3nc(Cl)nc(Cl)n3)cc2)n1` [4a, 4-[(4,6-Dichloro-1,3,5-triazin-2-yl)amino]-N-(4,6-dimethylpyrimidin-2-yl)benzenesulfonamide], for which the melting point lay in the range of 327 to 329 °C. In data set [1], this compound registered an IC50 of 14.9 ± 0.02 µM.

In turn, `Cc1cc(C)nc(NS(=O)(=O)c2ccc(N)cc2)n1` [4b, sulfadimidine, reference compound] had an inhibition at 500 µM in data set [1] of 41.7%. As for `O=S(=O)(Nc1cncc(Cl)n1)c1ccc(Nc2nc(Cl)nc(Cl)n2)cc1` [5a, N-(6-Chloropyrazin-2-yl)-4-[(4,6-dichloro-1,3,5-triazin-2-yl)amino]benzenesulfonamide], the melting point is 236 to 238 °C. In data set [1], the IC50 was 1.49 ± 0.006 µM. Regarding `Nc1ccc(S(=O)(=O)Nc2cncc(Cl)n2)cc1` [5b, sulfachloropyrazine, reference compound], testing at 500 µM in data set [1] gave an inhibition of 42.4%.

These data come from PMC4241293, “Sulfa Drugs as Inhibitors of Carbonic Anhydrase: New Targets for the Old Drugs” (BioMed Research International, 2014).
